Experimental data published in patent US8048825B2, “Haloalkylsulfonanilide derivatives or salt thereof, herbicide comprising the derivatives as active ingredient, and use of the herbicide” (Nihon Nohyaku Co., Ltd., priority 2006, dated 2011).

Experiments:
Format in all cases: in vivo
[1] = test system: Echinochloa crus-galli; test: Herbicidal effect on paddy field weeds of post-emergence stage (Post), Test Example 2; details: one-leaf stage, 1000 g/ha as active ingredient, examined after 21 days
Method in brief: (§1)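 Scirpus juncoides and Echinochloa crus-galli sown in clay loam, with Lindernia procumbens seed in the soil cover, under 5 cm flooding in greenhouse. At one-leaf stage, 1000 g/ha active ingredient applied to pot water. Efficacy scored visually 0–5 against untreated plants at 21 days after treatment.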

[2] = test system: Scirpus juncoides; test: as above; details: one-leaf stage, 1000 g/ha as active ingredient, examined after 21 days
Method in brief: as §1

[3] = test system: Lindernia procumbens; test: as above; details: one-leaf stage, 1000 g/ha as active ingredient, examined after 21 days
Method in brief: as §1

[4] = test system: Scirpus juncoides; test: Herbicidal efficacy on paddy field weeds of pre-emergence stage (Pre), Test Example 1; details: 1000 g/ha as active ingredient, examined after 21 days
Method in brief: (§2)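 Clay-loam pots sown with Scirpus juncoides, covered with soil containing Lindernia procumbens seed, flooded to 5 cm. Next day formulated compound applied dropwise to water at 1000 g/ha a.i. Greenhouse-grown; growth inhibition versus untreated scored 0–5 after 21 days.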

[5] = test system: Lindernia procumbens; test: as above; details: 1000 g/ha as active ingredient, examined after 21 days
Method in brief: as §2

SMILES | Echinochloa crus-galli post (herbicidal effect) [1] | Scirpus juncoides post (herbicidal effect) [2] | Lindernia procumbens post (herbicidal effect) [3] | Scirpus juncoides pre (herbicidal effect) [4] | Lindernia procumbens pre (herbicidal effect) [5]
CCC1(CC)CCN(Cc2ccccc2NS(=O)(=O)C(F)(F)F)C(=O)O1 [Compound 1-102] | 4 (90%-99% herbicidal effect, phytotoxicity) | 4 (90%-99% herbicidal effect, phytotoxicity) | 4 (90%-99% herbicidal effect, phytotoxicity) | 4 (90%-99% herbicidal effect, phytotoxicity) | 4 (90%-99% herbicidal effect, phytotoxicity)
CCOC(=O)N(c1ccccc1CN1CCC(CC)(CC)OC1=O)S(=O)(=O)C(F)(F)F [Compound 1-104] | 4 (90%-99% herbicidal effect, phytotoxicity) | 4 (90%-99% herbicidal effect, phytotoxicity) | 4 (90%-99% herbicidal effect, phytotoxicity) | 4 (90%-99% herbicidal effect, phytotoxicity) | 4 (90%-99% herbicidal effect, phytotoxicity)
CCC1(CC)CCN(Cc2ccccc2N(C(=O)OCC(C)C)S(=O)(=O)C(F)(F)F)C(=O)O1 [Compound 1-107] | 4 (90%-99% herbicidal effect, phytotoxicity) | 4 (90%-99% herbicidal effect, phytotoxicity) | 4 (90%-99% herbicidal effect, phytotoxicity) | 4 (90%-99% herbicidal effect, phytotoxicity) | 4 (90%-99% herbicidal effect, phytotoxicity)
CCCCC(CC)COC(=O)N(c1ccccc1CN1CCC(CC)(CC)OC1=O)S(=O)(=O)C(F)(F)F (centres unmarked) [Compound 1-109] | 4 (90%-99% herbicidal effect, phytotoxicity) | 4 (90%-99% herbicidal effect, phytotoxicity) | 4 (90%-99% herbicidal effect, phytotoxicity) | 4 (90%-99% herbicidal effect, phytotoxicity) | 4 (90%-99% herbicidal effect, phytotoxicity)
CCC1(CC)CCN(Cc2ccccc2N(C(=O)OCC(C)(C)C)S(=O)(=O)C(F)(F)F)C(=S)O1 [Compound 1-120] | 4 (90%-99% herbicidal effect, phytotoxicity) | 4 (90%-99% herbicidal effect, phytotoxicity) | 4 (90%-99% herbicidal effect, phytotoxicity) | 4 (90%-99% herbicidal effect, phytotoxicity) | 4 (90%-99% herbicidal effect, phytotoxicity)
CC1(C2CC2)CCN(Cc2ccccc2NS(=O)(=O)C(F)(F)F)C(=O)O1 (centres unmarked) [Compound 1-125] | 4 (90%-99% herbicidal effect, phytotoxicity) | 4 (90%-99% herbicidal effect, phytotoxicity) | 4 (90%-99% herbicidal effect, phytotoxicity) | 4 (90%-99% herbicidal effect, phytotoxicity) | 4 (90%-99% herbicidal effect, phytotoxicity)
CC(C)COC(=O)N(c1ccccc1CN1CCC(C)(C2CC2)OC1=O)S(=O)(=O)C(F)(F)F (centres unmarked) [Compound 1-130] | 4 (90%-99% herbicidal effect, phytotoxicity) | 4 (90%-99% herbicidal effect, phytotoxicity) | 4 (90%-99% herbicidal effect, phytotoxicity) | 4 (90%-99% herbicidal effect, phytotoxicity) | 4 (90%-99% herbicidal effect, phytotoxicity)
CC(C)(C)COC(=O)N(c1ccccc1CN1CCC(C)(C2CC2)OC1=O)S(=O)(=O)C(F)(F)F (centres unmarked) [Compound 1-131] | 4 (90%-99% herbicidal effect, phytotoxicity) | 4 (90%-99% herbicidal effect, phytotoxicity) | 4 (90%-99% herbicidal effect, phytotoxicity) | 4 (90%-99% herbicidal effect, phytotoxicity) | 4 (90%-99% herbicidal effect, phytotoxicity)
CC(C)(C)C(=O)OCN(c1ccccc1CN1CCC(C)(C2CC2)OC1=O)S(=O)(=O)C(F)(F)F (centres unmarked) [Compound 1-136] | 4 (90%-99% herbicidal effect, phytotoxicity) | 4 (90%-99% herbicidal effect, phytotoxicity) | 4 (90%-99% herbicidal effect, phytotoxicity) | 4 (90%-99% herbicidal effect, phytotoxicity) | 4 (90%-99% herbicidal effect, phytotoxicity)
O=C1OC2(CCCC2)CCN1Cc1ccccc1NS(=O)(=O)C(F)(F)F [Compound 1-137] | 4 (90%-99% herbicidal effect, phytotoxicity) | 4 (90%-99% herbicidal effect, phytotoxicity) | 4 (90%-99% herbicidal effect, phytotoxicity) | 4 (90%-99% herbicidal effect, phytotoxicity) | 4 (90%-99% herbicidal effect, phytotoxicity)
CC(C)COC(=O)N(c1ccccc1CN1CCC2(CCCC2)OC1=O)S(=O)(=O)C(F)(F)F [Compound 1-142] | 4 (90%-99% herbicidal effect, phytotoxicity) | 4 (90%-99% herbicidal effect, phytotoxicity) | 4 (90%-99% herbicidal effect, phytotoxicity) | 4 (90%-99% herbicidal effect, phytotoxicity) | 4 (90%-99% herbicidal effect, phytotoxicity)
CC(C)(C)COC(=O)N(c1ccccc1CN1CCC2(CCCC2)OC1=O)S(=O)(=O)C(F)(F)F [Compound 1-143] | 4 (90%-99% herbicidal effect, phytotoxicity) | 4 (90%-99% herbicidal effect, phytotoxicity) | 4 (90%-99% herbicidal effect, phytotoxicity) | 4 (90%-99% herbicidal effect, phytotoxicity) | 4 (90%-99% herbicidal effect, phytotoxicity)
CCOC(=O)N(c1ccccc1CN1CCC(c2ccccc2)(C2CC2)OC1=O)S(=O)(=O)C(F)(F)F (centres unmarked) [Compound 1-185] | 4 (90%-99% herbicidal effect, phytotoxicity) | 4 (90%-99% herbicidal effect, phytotoxicity) | 4 (90%-99% herbicidal effect, phytotoxicity) | 4 (90%-99% herbicidal effect, phytotoxicity) | 4 (90%-99% herbicidal effect, phytotoxicity)
CCOC(=O)N(c1ccccc1CN1CCC(c2ccccc2)(C2CCC2)OC1=O)S(=O)(=O)C(F)(F)F (centres unmarked) [Compound 1-208] | 4 (90%-99% herbicidal effect, phytotoxicity) | 4 (90%-99% herbicidal effect, phytotoxicity) | 4 (90%-99% herbicidal effect, phytotoxicity) | 4 (90%-99% herbicidal effect, phytotoxicity) | 4 (90%-99% herbicidal effect, phytotoxicity)
CC(C)COC(=O)N(c1ccccc1CN1CCC(c2ccccc2)(C2CCC2)OC1=O)S(=O)(=O)C(F)(F)F (centres unmarked) [Compound 1-211] | 4 (90%-99% herbicidal effect, phytotoxicity) | 4 (90%-99% herbicidal effect, phytotoxicity) | 4 (90%-99% herbicidal effect, phytotoxicity) | 4 (90%-99% herbicidal effect, phytotoxicity) | 4 (90%-99% herbicidal effect, phytotoxicity)
CCOC(=O)N(c1ccccc1CN1CCC(c2ccccc2)(C(F)(F)F)OC1=O)S(=O)(=O)C(F)(F)F (centres unmarked) [Compound 1-230] | 4 (90%-99% herbicidal effect, phytotoxicity) | 4 (90%-99% herbicidal effect, phytotoxicity) | 5 (100% herbicidal effect, phytotoxicity) | 5 (100% herbicidal effect, phytotoxicity) | 5 (100% herbicidal effect, phytotoxicity)
CC1(C)CN(Cc2ccccc2NS(=O)(=O)C(F)(F)F)C(=O)OC1c1ccccc1 (centres unmarked) [Compound 1-261] | 4 (90%-99% herbicidal effect, phytotoxicity) | 4 (90%-99% herbicidal effect, phytotoxicity) | 5 (100% herbicidal effect, phytotoxicity) | 5 (100% herbicidal effect, phytotoxicity) | 5 (100% herbicidal effect, phytotoxicity)
CCOC(=O)N(c1ccccc1CN1CC(C)(C)C(c2ccccc2)OC1=O)S(=O)(=O)C(F)(F)F (centres unmarked) [Compound 1-263] | 4 (90%-99% herbicidal effect, phytotoxicity) | 4 (90%-99% herbicidal effect, phytotoxicity) | 5 (100% herbicidal effect, phytotoxicity) | 4 (90%-99% herbicidal effect, phytotoxicity) | 5 (100% herbicidal effect, phytotoxicity)
O=C1OC(c2c(Cl)cccc2Cl)CCN1Cc1ccccc1NS(=O)(=O)C(F)(F)F (centres unmarked) [Compound 1-272] | 4 (90%-99% herbicidal effect, phytotoxicity) | 4 (90%-99% herbicidal effect, phytotoxicity) | 5 (100% herbicidal effect, phytotoxicity) | 4 (90%-99% herbicidal effect, phytotoxicity) | 5 (100% herbicidal effect, phytotoxicity)
